In ChEMBL document CHEMBL1144983, “Synthesis and affinity of a possible byproduct of electrophilic radiolabeling of [123I]IBZM” (Bioorg Med Chem Lett, 2003):

Legend:
Assay type in all cases: organism-based
D(1A) dopamine receptor [1] = target: T1, D(1A) dopamine receptor (Rattus norvegicus, UniProt P18901); experiment: In vivo inhibitory activity against dopamine (D1) receptor in rat caudate-putamen tissue
D(2) dopamine receptor [2] = target: T2, D(2) dopamine receptor (Rattus norvegicus, UniProt P61169); experiment: In vivo inhibitory activity against dopamine (D2) receptor in rat caudate-putamen tissue
T2 sequence (P61169 whole entry): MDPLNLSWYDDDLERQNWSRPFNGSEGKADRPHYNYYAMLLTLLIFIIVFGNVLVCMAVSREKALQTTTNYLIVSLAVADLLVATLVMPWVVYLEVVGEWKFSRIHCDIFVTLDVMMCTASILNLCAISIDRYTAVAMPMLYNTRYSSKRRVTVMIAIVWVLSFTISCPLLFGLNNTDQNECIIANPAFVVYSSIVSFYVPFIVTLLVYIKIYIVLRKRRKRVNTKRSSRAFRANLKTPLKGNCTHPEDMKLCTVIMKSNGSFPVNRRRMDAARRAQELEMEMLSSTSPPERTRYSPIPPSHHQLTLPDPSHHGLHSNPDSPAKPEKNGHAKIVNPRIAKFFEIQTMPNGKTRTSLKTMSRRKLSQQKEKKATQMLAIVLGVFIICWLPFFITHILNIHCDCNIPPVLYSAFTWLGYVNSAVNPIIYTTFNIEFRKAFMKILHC

D(2) dopamine receptor [3] = target: T2, D(2) dopamine receptor; experiment: In vivo binding affinity against dopamine (D2) receptor in rat caudate-putamen tissue using [3H]nemonapride as radioligand
D(1A) dopamine receptor [4] = target: T1, D(1A) dopamine receptor; experiment: In vivo binding affinity against dopamine (D1) receptor in rat caudate-putamen tissue using [3H]SCH-23390 as radioligand

T1 sequence (P18901 whole entry): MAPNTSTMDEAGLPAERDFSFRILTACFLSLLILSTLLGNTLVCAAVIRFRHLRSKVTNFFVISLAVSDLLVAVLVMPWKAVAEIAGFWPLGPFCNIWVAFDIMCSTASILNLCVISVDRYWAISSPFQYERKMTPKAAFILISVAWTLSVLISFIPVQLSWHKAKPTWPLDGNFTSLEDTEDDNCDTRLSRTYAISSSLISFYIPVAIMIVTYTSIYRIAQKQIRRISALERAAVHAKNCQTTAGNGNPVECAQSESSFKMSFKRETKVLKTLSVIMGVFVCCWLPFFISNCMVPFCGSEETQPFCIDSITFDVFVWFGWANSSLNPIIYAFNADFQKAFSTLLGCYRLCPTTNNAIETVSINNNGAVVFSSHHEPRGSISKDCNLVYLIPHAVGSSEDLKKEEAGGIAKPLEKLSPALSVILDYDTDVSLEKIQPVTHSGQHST

IC50 (D(1A) dopamine receptor [1])	IC50 (D(2) dopamine receptor [2])	IC50 (D(2) dopamine receptor [3])	IC50 (D(1A) dopamine receptor [4])	SMILES
> 10000 nM	196 nM	–	–	CCN1CCC[C@H]1CNC(=O)c1c(O)ccc(I)c1OC
> 10000 nM	1.71 nM	1.2 nM	> 10000 nM	CCN1CCC[C@H]1CNC(=O)c1c(OC)ccc(I)c1O [IOLOPRIDE]
> 10000 nM	–	–	–	CCN1CCC[C@H]1CNC(=O)c1c(O)c(Cl)cc(Cl)c1OC [RACLOPRIDE]
